Laboratory results taken from US4151300A, “Acetohydroxamic acids” (Laboratoire L. Lafon, priority 1976, dated 1979).
Converted amounts (≈) assume the structure as drawn. “Also recorded” adds a separate entry of the source.

Tests used:
central nervous system = assay: psychopharmacological study / behaviour; assay type: in vivo, mice; details: for sedation / sedative effect: high dose(s)
rats [1] = assay: interaction with apomorphine (stereotype behaviour in rats); assay type: in vivo; details: rats, i.p.
Summary of the method: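 Rats in groups of six received the test compound intraperitoneally as a gum arabic suspension at 5 ml/kg. Thirty minutes later they were given apomorphine 0.5 mg/kg subcutaneously, and stereotyped behaviour was scored.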

rats [2] = assay: interaction with amphetamine (stereotypies in rats); assay type: in vivo; details: rats, i.p.
Summary of the method: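 Test products given intraperitoneally as a gum arabic suspension (5 ml/kg in rats). Thirty minutes later, amphetamine 2 mg/kg is injected intraperitoneally; 6 animals per dose.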

mice [3] = assay: four-plate test; assay type: in vivo, mice (EVIC CEBA strain); details: i.p.
Experimental: (§1) The following text summarises a part of the results of the tests which were carried out with the products according to the invention, these products (unless otherwise stated) being administered intraperitoneally, in suspension in a gum solution (gum arabic), in a volume of 20 ml/kg in the case of mice and of 5 ml/kg in the case of rats.
(§2) The test is carried out on batches of 10 sensitive mice (EVIC CEBA strain), 30 minutes after the administration of CRL 40,373.
(§3) Batches of 10 mice are subjected to the test thirty minutes after having received CRL 40,385.

mice [4] = assay: motility reduced by habituation to a cage (residual motility); assay type: in vivo; details: i.p.
Summary of the method: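 Mice habituated 18 hours in actimeters received compound intraperitoneally as a gum arabic suspension (20 ml/kg) and were returned to their cages. Motility was recorded for 30 minutes starting half an hour after dosing, with 6 animals per dose and 12 controls.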

mice [5] = assay: spontaneous motility (actimeter); assay type: in vivo; details: mice
Summary of the method: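 Compounds given i.p. as a gum arabic suspension at 20 ml/kg. Thirty minutes after dosing, mice (6 per dose, 12 controls) went into an actimeter and motility was recorded for half an hour.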

mice [6] = assay: electrical shock (convulsing effects); assay type: in vivo, mice (EVIC CEBA strain); details: i.p.
Experimental: as §1, §2, §3

mice [7] = assay: motility reduced by hypoxia treatment (motor recovery); assay type: in vivo; details: mice, i.p.
mice [8] = assay: toxicity (isolated mice, intraperitoneal); assay type: in vivo
Experimental: as §1

rats [9] = assay: behaviour in rats; assay type: in vivo
Experimental: as §1

mice [10] = assay: traction (motor incoordination); assay type: in vivo, mice (EVIC CEBA strain)
mice [11] = assay: interaction with oxotremorine (temperature, trembling, peripheral cholinergic symptoms); assay type: in vivo; details: mice, i.p.
mice [12] = assay: inter-group aggressiveness (number of fights); assay type: in vivo
Summary of the method: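 Mice were housed either three weeks (CRL 40,373) or 18 days (CRL 40,385, groups of 3) on each side of an opaque cage partition. Fights were counted over 15 min.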

man = assay: clinical use in man; assay type: in vivo; details: pill 20 mg, 3 to 4 pills per day
[13] = solubility in distilled water; assay type: physicochemical; details: read-out: solubility limit
mice [14] = assay: interaction with reserpine (hypothermia, ptosis); assay type: in vivo; details: i.p.
mice [15] = assay: interaction with apomorphine in mice; assay type: in vivo

CC(C(=O)NO)[S+]([O-])Cc1ccc(Cl)cc1 (stereo not shown) [CRL 40,466, 2-(p-Chlorobenzylsulphinyl)-propionohydroxamic acid]
reactivity (central nervous system; mice, high dose): hypo-reactivity | excitation (central nervous system; mice, low dose): excitation, with hyper-reactivity | body temperature effect (product alone) (central nervous system; mouse, in vivo): hypothermia | psychopharmacological profile / conclusion (central nervous system; mouse, in vivo): effects of the sedative type and effects of the psychostimulant type; also recorded: sedation in mice | ptosis (product alone) (central nervous system; mouse, in vivo): ptosis | apomorphine-induced stereotypies (rats [1]): does not markedly alter the stereotypies induced in rats by apomorphine | amphetamine-induced stereotypies (rats [2]): does not markedly alter the stereotypies induced in rats by apomorphine and amphetamine | number of incorrect moves (four-plate test) (mice [3]; mice): moderate (but significant) increase in the number of incorrect moves | motility reduced by habituation to the cage (mice [4]): moderate increase in the motility reduced by habituation | spontaneous motility (mice [5]; high dose): reduction in spontaneous motility | spontaneous motility (mice [5]; i.p., 8 mg/kg): appears to exhibit a stimulant effect on the motility | spontaneous motility (mice [5]; i.p., 512 mg/kg): depresses spontaneous motility in mice | convulsing effects of the electric shock (mice [6]; mice): antagonism to convulsions caused by electric shock | motor recovery after hypoxia/anoxia by pressure reduction (mice [7]): moderate increase in the motility reduced by habituation or by the effects of hypoxia | mortality (mice [8]; mice, i.p., 256, 512 and 1,024 mg/kg): does not cause any mortality whatsoever | excitation (rats [9]): excitation, with hyper-reactivity | motor incapacity (mice [10]; high dose): motor incapacity | oxotremorine-induced trembling (mice [11]): reduces the trembling movements due to oxotremorine | temperature (oxotremorine-induced hypothermia) (mice [11]): does not oppose hypothermia induced by oxotremorine | temperature (oxotremorine-induced hypothermia) (mice [11]; high doses): aggravates the hypothermia | aggressiveness (mice [12]; low dose): increase in aggressiveness | aggressiveness (mice [12]; mice, i.p., large/high dose): reduction of aggressiveness

O=C(CC(=O)Nc1c(Cl)cccc1Cl)NO [CRL 40,510, 2,6-Dichlorophenyl-carbamoyl-acetohydroxamic acid]
sedation / sedative effect (central nervous system): moderate sedative effect | psychopharmacological profile / conclusion (central nervous system; mouse, in vivo): comes close to the benzodiazepines in respect of anxiolytic and anti-convulsive activities; also recorded: relative resistance to sedation | anxiolytic effect (four plate test) (mice [3]; also gastric administration): effects of the anxiolytic type | clinical result (man): good results in man as an anxiolytic sedative agent | solubility [13]: ~13 mg/mL (≈ 49.4 mM) | anti-convulsive effect (mice [6]; also gastric administration): of the anti-convulsive type | LD-O (maximum non-lethal dose) (mice [8]; mice, i.p.): greater than 1,024 mg/kg | motor incoordination / incapacity (mice [10]; i.p.): absence of motor incapacity | oxotremorine-induced trembling (mice [11]): moderately antagonistic to the trembling movements caused by oxotremorine

O=C(CNc1ccc(Cl)c(Cl)c1)NO [CRL 40,500, (3,4-Dichloroanilino)-acetohydroxamic acid]
sedation / sedative effect (central nervous system): moderate sedation at high doses | apomorphine-induced stereotypies (rats [1]): does not alter the stereotypies induced by apomorphine | amphetamine-induced stereotypies (rats [2]): does not alter the stereotypies induced by apomorphine (rats and mice) and by amphetamine (rats) | reserpine-induced hypothermia (mice [14]): aggravation of the hypothermia due to reserpine | apomorphine-induced stereotypies (mice [15]): does not alter the stereotypies induced by apomorphine | motility reduced by habituation to the cage (mice [4]; 128 mg/kg): moderate resumption of the motor activity of mice habituated to their cage | spontaneous motility (mice [5]; i.p., 32 and 128 mg/kg): moderately reduces the spontaneous motility of mice | motor recovery after hypoxia/anoxia by pressure reduction (mice [7]): does not cause a marked improvement in the motor recovery of mice | mortality (mice [8]; i.p., 256 mg/kg): the mice survive | average time to death (mice [8]; i.p., 512 mg/kg): 18 h | relative toxicity (mice [8]; mouse, in vivo, ip): more toxic than the products studied above | symptoms / behaviour (mice [8]; mouse, in vivo, ip, 256 mg/kg): the symptoms are identical | temperature (oxotremorine-induced hypothermia) (mice [11]): aggravation of the hypothermia due to reserpine and to oxotremorine | peripheral effects of oxotremorine (mice [11]; 128 and 32 mg/kg): increases the peripheral effects of oxotremorine | aggressiveness (mice [12]; low dose): reduction of aggressiveness which is substantial at low doses | inter-group aggressiveness (mice [12]; mice, i.p., all the doses studied): reduces the inter-group aggressiveness of mice | inter-group aggressiveness (mice [12]; mice, i.p., high doses (64 and 128 mg/kg)): a reduction of the effect is observed | inter-group aggressiveness (mice [12]; mice, i.p., lowest dose used (8 mg/kg)): present with considerable intensity
